Publication PMC9409646 (Marine Drugs, 2022)

Test system: hα3β4 nAChRs
Format: cell-based, human

Substance	activity at hα3β4 nAChRs compared with wild-type Czon1107 (in words)	inhibition of ACh-evoked current amplitude
Czon1107-F9A: Ala-scan analogue of Czon1107 (GFRSPCPPAC)	slight potency decrease	–
Czon1107-G1R: Arg-scan analogue of Czon1107 (RFRSPCPPFC)	–	~ 50%
Czon1107-P5R: Arg-scan analogue of Czon1107 (GFRSRCPPFC)	No significant change in activity	–
Czon1107-P7R: Arg-scan analogue of Czon1107 (GFRSPCRPFC)	–	~ 50%
Czon1107-P8R: Arg-scan analogue of Czon1107 (GFRSPCPRFC)	No significant change in activity	–
